Data as given in PMC11050599, “Novel Tetracyclic Azaphenothiazines with the Quinoline Ring as New Anticancer and Antibacterial Derivatives of Chlorpromazine” (International Journal of Molecular Sciences, 2024).
In brackets after ≈: the same amount, converted by molar mass. Read-outs that look alike come from different tables or passages of the source.

Legend:
[1] = tested on: A549 (lung cancer); assay: MTT assay, A549 cells; format: cell-based, human; settings: for IC50: MTT, 72 h, mean SD, read-out: IC50 A549; for SI A549: SI = IC50 for normal cell line (HaCaT)/IC50 cancer cell line
Method: (§1) The human cell lines, such as A549 (lung cancer), MDA-MB-231 (breast cancer), MiaPaca-2 (pancreatic cancer), PC3 (metastatic prostate cancer), HCT-116 (colon carcinoma), and HaCaT (immortalized keratinocytes), were sourced from the American Type Culture Collection (ATCC) in Rockville, USA. Culturing conditions varied as follows: HCT116 cells were cultured in MEM (ThermoSci, Waltham, MA, USA), A549, MDA-MB-231, MiaPaca, HaCaT cells in DMEM High Glucose and PC3 cells were cultured in RPMI (Biowest SAS, Nuaillé, France). The growth medium consisted of 10% fetal bovine serum (FBS, Sigma-Aldrich, St. Louis, MO, USA), 20 mM HEPES (Biowest, Nuaillé, France), and antibiotics (100 U/mL of penicillin and 100 μg/mL of streptomycin) from Gibco, Grand Island, NY, USA. […] These compounds were added to 96-well plates containing study cells (1 × 10^4 cells per well) and incubated for 72 h. […] Cell absorbance results were incorporated into the formula for calculating the relative MTT level (%), enabling the assessment of cell viability following exposure to the test compounds. The cell viability percentage represents the MTT reduction in cells treated with the test compounds compared to the control sample, where only the medium was added to the cells.

[2] = tested on: MDA-MB-231 (breast cancer); assay: MTT assay, MDA-MB-231 cells; format: cell-based, human; settings: for IC50: MTT, 72 h, MDA-MB231, read-out: IC50 MDA; for SI MDA: SI = IC50 for normal cell line (HaCaT)/IC50 cancer cell line
Method: as §1

[3] = tested on: HaCaT (immortalized human keratinocytes); assay: MTT assay, HaCaT normal cells; format: cell-based; settings: MTT, 72 h, normal cells, read-out: IC50 HaCaT (Table 3)
Method: as §1

[4] = tested on: E. coli ATCC 25922; assay: MIC broth microdilution; format: cell-based; settings: 19 h, 35 °C; for MIC: Escherichia coli, ATCC25922, read-out: MIC E. coli ATCC 25922
Description: (§2) To evaluate the antibacterial effectiveness of chloroquinobenzothiazine derivatives, various bacterial strains from international microbe collections such as the American Type Culture Collection (ATCC) and the National Collection of Type Culture (NCTC) were examined, alongside a panel of clinical rods. This included two Gram-negative organisms, E. coli ATCC 25922 and P. aeruginosa ATCC 15442, and a series of six Gram-positive strains: S. aureus NCTC 4163; S. aureus ATCC 29213, 25923, and 6538; and S. epidermidis ATCC 12228 and 35984. […] The MIC was determined using the two-fold serial broth microdilution method in 96-well microtitration plates containing Mueller-Hinton II broth medium (Becton Dickinson, Franklin Lakes, NJ, USA). The final inoculum for all tested bacteria was adjusted to […] (colony-forming units per milliliter). The stock solution of the tested compounds was prepared in dimethyl sulfoxide (DMSO) and diluted to a maximum of 1% solvent content with a sterile medium.

[5] = tested on: P. aeruginosa ATCC 15442; assay: MIC broth microdilution; format: cell-based; settings: 19 h, 35 °C; for MIC: Pseudomonas aeruginosa, ATCC15442, read-out: MIC P. aeruginosa ATCC 15442
Description: as §2

[6] = tested on: S. aureus ATCC 25923; assay: MIC broth microdilution; format: cell-based; settings: 19 h, 35 °C; for MIC: Staphylococcus aureus, ATCC25923, read-out: MIC S. aureus ATCC 25923
Description: as §2

[7] = tested on: S. aureus ATCC 29213; assay: MIC broth microdilution; format: cell-based; settings: 19 h, 35 °C; for MIC: Staphylococcus aureus, ATCC29213, read-out: MIC S. aureus ATCC 29213
Description: as §2

[8] = tested on: S. aureus ATCC 6538; assay: MIC broth microdilution; format: cell-based; settings: 19 h, 35 °C; for MIC: Staphylococcus aureus, ATCC6538, read-out: MIC S. aureus ATCC 6538
Description: as §2

[9] = tested on: S. aureus NCTC 4163; assay: MIC broth microdilution; format: cell-based; settings: 19 h, 35 °C; for MIC: Staphylococcus aureus, NCTC4163, read-out: MIC S. aureus NCTC 4163
Description: as §2

[10] = tested on: S. epidermidis ATCC 12228; assay: MIC broth microdilution; format: cell-based; settings: 19 h, 35 °C; for MIC: Staphylococcus epidermidis, ATCC12228, read-out: MIC S. epidermidis ATCC 12228
Description: as §2

[11] = tested on: S. epidermidis ATCC 35984; assay: MIC broth microdilution; format: cell-based; settings: 19 h, 35 °C; for MIC: Staphylococcus epidermidis, ATCC35984, read-out: MIC S. epidermidis ATCC 35984
Description: as §2

Molecule	SI A549 [1]	SI MDA [2]	IC50 ([1]; Homo sapiens, A549)	IC50 ([2]; Homo sapiens, MDA-MB-231)	IC50 ([3]; Homo sapiens, HaCaT)	MIC [4]	MIC [5]	MIC [6]	MIC [7]	MIC [8]	MIC [9]	MIC [10]	MIC [11]	further results
8-Chloro-6-[(1-(4-chlorobenzyl)-1H-1,2,3-triazol-4-yl)methyl]-quinobenzo[1,4]thiazine [Compound 31]	1.0	1.0	–	–	–	–	–	–	–	–	–	–	–	IC50 [1]: > 100 µM; IC50 [2]: > 100 µM; IC50 [3]: > 100 µM; MIC E. coli ATCC 25922 [4]: >256 µg/mL; MIC P. aeruginosa ATCC 15442 [5]: >256 µg/mL; MIC S. aureus ATCC 25923 [6]: >256 µg/mL; MIC S. aureus ATCC 29213 [7]: >256 µg/mL; MIC S. aureus ATCC 6538 [8]: >256 µg/mL; MIC S. aureus NCTC 4163 [9]: >256 µg/mL; MIC S. epidermidis ATCC 12228 [10]: >256 µg/mL; MIC S. epidermidis ATCC 35984 [11]: >256 µg/mL
8-Chloro-6-[(1-benzyl-1H-1,2,3-triazol-4-yl)-methyl]-quinobenzo[1,4]thiazine [Compound 29]	1.0	1.0	–	–	–	–	–	–	–	–	–	–	–	IC50 [1]: > 100 µM; IC50 [2]: > 100 µM; IC50 [3]: > 100 µM; MIC E. coli ATCC 25922 [4]: >256 µg/mL; MIC P. aeruginosa ATCC 15442 [5]: >256 µg/mL; MIC S. aureus ATCC 25923 [6]: >256 µg/mL; MIC S. aureus ATCC 29213 [7]: >256 µg/mL; MIC S. aureus ATCC 6538 [8]: >256 µg/mL; MIC S. aureus NCTC 4163 [9]: >256 µg/mL; MIC S. epidermidis ATCC 12228 [10]: >256 µg/mL; MIC S. epidermidis ATCC 35984 [11]: >256 µg/mL
CCN(CC)CCN1c2cc(Cl)ccc2Sc2cc3ccccc3nc21 [Compound 7, 2-(8-Chloroquino[3,2-b]benzo[1,4]thiazin-6-yl)-N,N-diethylethan-1-amine]	3.7	1.0	27.2 ± 8.4 µM	> 100 µM	> 100 µM	> 256 µg/mL	> 256 µg/mL	8 µg/mL (≈ 20.8 µM)	8 µg/mL (≈ 20.8 µM)	8 µg/mL (≈ 20.8 µM)	8 µg/mL (≈ 20.8 µM)	8 µg/mL (≈ 20.8 µM)	8 µg/mL (≈ 20.8 µM)	–
Clc1ccc2c(c1)N(CCN1CCCCC1)c1nc3ccccc3cc1S2 [Compound 10, 8-Chloro-6-(2-(piperidin-1-yl)ethyl)-quino[3,2-b]benzo[1,4]thiazine]	1.6	1.0	63.8 ± 8.5 µM	> 100 µM	> 100 µM	> 256 µg/mL	> 256 µg/mL	> 256 µg/mL	> 256 µg/mL	> 256 µg/mL	> 256 µg/mL	> 256 µg/mL	> 256 µg/mL	–
CC(=O)NCCCN1c2cc(Cl)ccc2Sc2cc3ccccc3nc21 [Compound 16, N-(3-(8-Chloroquino[3,2-b]benzo[1,4]thiazin-6-yl)propyl)acetamide]	4.1	1.3	24.6 ± 6.1 µM	76.6 ± 8.9 µM	> 100 µM	> 256 µg/mL	> 256 µg/mL	> 256 µg/mL	> 256 µg/mL	> 256 µg/mL	> 256 µg/mL	> 256 µg/mL	> 256 µg/mL	–
CC(=O)NCCCCN1c2cc(Cl)ccc2Sc2cc3ccccc3nc21 [Compound 17, N-(4-(8-Chloroquino[3,2-b]benzo[1,4]thiazin-6-yl)butyl)acetamide]	1.2	1.0	82.3 ± 6.2 µM	> 100 µM	> 100 µM	> 256 µg/mL	> 256 µg/mL	> 256 µg/mL	> 256 µg/mL	> 256 µg/mL	> 256 µg/mL	> 256 µg/mL	> 256 µg/mL	–
CCOC(=O)NCCCN1c2cc(Cl)ccc2Sc2cc3ccccc3nc21 [Compound 18, Ethyl(3-(8-chloroquino[3,2-b]benzo[1,4]thiazin-6-yl)propyl)carbamate]	1.1	1.0	86.6 ± 0.8 µM	> 100 µM	> 100 µM	> 256 µg/mL	> 256 µg/mL	> 256 µg/mL	> 256 µg/mL	> 256 µg/mL	> 256 µg/mL	> 256 µg/mL	> 256 µg/mL	–
CCOC(=O)NCCCCN1c2cc(Cl)ccc2Sc2cc3ccccc3nc21 [Compound 19, Ethyl(4-(8-chloroquino[3,2-b]benzo[1,4]thiazin-6-yl)butyl)carbamate]	1.0	1.0	> 100 µM	> 100 µM	> 100 µM	> 256 µg/mL	> 256 µg/mL	> 256 µg/mL	> 256 µg/mL	> 256 µg/mL	> 256 µg/mL	> 256 µg/mL	> 256 µg/mL	–
CS(=O)(=O)NCCCN1c2cc(Cl)ccc2Sc2cc3ccccc3nc21 [Compound 22, N-(3-(8-Chloroquino[3,2-b]benzo[1,4]thiazin-6-yl)propyl)methanesulfonamide]	1.0	1.0	> 100 µM	> 100 µM	> 100 µM	> 256 µg/mL	> 256 µg/mL	> 256 µg/mL	> 256 µg/mL	> 256 µg/mL	> 256 µg/mL	> 256 µg/mL	> 256 µg/mL	–
Cc1ccc(S(=O)(=O)NCCCN2c3cc(Cl)ccc3Sc3cc4ccccc4nc32)cc1 [Compound 24, N-(3-(8-Chloroquino[3,2-b]benzo[1,4]thiazin-6-yl)propyl)-4-methylbenzenesulfonamide]	1.0	1.0	> 100 µM	> 100 µM	> 100 µM	> 256 µg/mL	> 256 µg/mL	> 256 µg/mL	> 256 µg/mL	> 256 µg/mL	> 256 µg/mL	> 256 µg/mL	> 256 µg/mL	–
C#CCN1c2cc(Cl)ccc2Sc2cc3ccccc3nc21 [Compound 26, 8-chloro-6-propynyquinobenzothiazine]	1.0	0.7	> 100 µM	95.8 ± 9.2 µM	71.7 ± 5.7 µM	> 256 µg/mL	> 256 µg/mL	> 256 µg/mL	> 256 µg/mL	> 256 µg/mL	> 256 µg/mL	> 256 µg/mL	> 256 µg/mL	–
FC(F)(F)c1ccc(-n2cc(CN3c4cc(Cl)ccc4Sc4cc5ccccc5nc43)nn2)cc1 [Compound 28, 8-Chloro-6-((1-(4-(trifluoromethyl)phenyl)-1H-1,2,3-triazol-4-yl)methyl)-quino[3,2-b]benzo[1,4]thiazine]	1.0	1.0	> 100 µM	> 100 µM	> 100 µM	> 256 µg/mL	> 256 µg/mL	> 256 µg/mL	> 256 µg/mL	> 256 µg/mL	> 256 µg/mL	> 256 µg/mL	> 256 µg/mL	–
